# From PubChem BioAssay AID2060627 (Molecular Pharmacology Branch, DTP, NCI, 2025)
# System: 156681-154-R-J1-PDC complex spheroid viability
# Assay: Anticancer human tumor 156681-154-R-J1-PDC patient-derived melanoma cell line growth inhibition [CLK]
# Details: for IC50: curve of first compound; for viability, T/C: stronger effect = lower value
# Method in brief: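 Multi-cell-type spheroids combined patient-derived tumor cells with HUVEC endothelial cells and human mesenchymal stem cells. Paired agents were dosed in half-log steps down from about clinical Cmax, or from 10 microM where Cmax was unknown.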
# 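Further: spheroids exposed to the agents for seven days.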
# 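Wherever viability, T/C is given: 100% = DMSO vehicle control viability.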
smiles,measurement,setting,value
NC(=O)C(=Cn1cnc(-c2cc(C(F)(F)F)cc(C(F)(F)F)c2)n1)c1cncnc1 + CNC(=O)c1ccc(Nc2nc(OC3CCCC3)c3c(-c4ccc5nc(C)oc5c4)c[nH]c3n2)c(OC)c1,IC50,second compound 0.0316 µM,61.9 nM
same,IC50,second compound 0.1 µM,< 9.49 nM
same,IC50,second compound 0.316 µM,33.2 nM
same,IC50,second compound 1 µM,< 9.49 nM
same,IC50,second compound 3.16 µM,< 9.49 nM
same,IC50,second compound 10 µM,< 9.49 nM
same,"viability, T/C","second compound 0.0316 µM, first compound 0.00949 µM",64.7%
same,"viability, T/C","second compound 0.0316 µM, first compound 0.03 µM",81%
same,"viability, T/C","second compound 0.0316 µM, first compound 0.0949 µM",36.6%
same,"viability, T/C","second compound 0.0316 µM, first compound 0.3 µM",14%
same,"viability, T/C","second compound 0.0316 µM, first compound 0.949 µM",6.14%
same,"viability, T/C","second compound 0.0316 µM, first compound 3 µM",3.87%
same,"viability, T/C","second compound 0.1 µM, first compound 0.00949 µM",37.9%
same,"viability, T/C","second compound 0.1 µM, first compound 0.03 µM",52.5%
same,"viability, T/C","second compound 0.1 µM, first compound 0.0949 µM",33%
same,"viability, T/C","second compound 0.1 µM, first compound 0.3 µM",18.4%
same,"viability, T/C","second compound 0.1 µM, first compound 0.949 µM",6.15%
same,"viability, T/C","second compound 0.1 µM, first compound 3 µM",4.5%
same,"viability, T/C","second compound 0.316 µM, first compound 0.00949 µM",52.4%
same,"viability, T/C","second compound 0.316 µM, first compound 0.03 µM",53.7%
same,"viability, T/C","second compound 0.316 µM, first compound 0.0949 µM",23.7%
same,"viability, T/C","second compound 0.316 µM, first compound 0.3 µM",7.53%
same,"viability, T/C","second compound 0.316 µM, first compound 0.949 µM",3.12%
same,"viability, T/C","second compound 0.316 µM, first compound 3 µM",3.35%
same,"viability, T/C","second compound 1 µM, first compound 0.00949 µM",40.3%
same,"viability, T/C","second compound 1 µM, first compound 0.03 µM",45%
same,"viability, T/C","second compound 1 µM, first compound 0.0949 µM",7.8%
same,"viability, T/C","second compound 1 µM, first compound 0.3 µM",1.43%
same,"viability, T/C","second compound 1 µM, first compound 0.949 µM",1.06%
same,"viability, T/C","second compound 1 µM, first compound 3 µM",0.77%
same,"viability, T/C","second compound 3.16 µM, first compound 0.00949 µM",37.5%
same,"viability, T/C","second compound 3.16 µM, first compound 0.03 µM",22.1%
same,"viability, T/C","second compound 3.16 µM, first compound 0.0949 µM",4.21%
same,"viability, T/C","second compound 3.16 µM, first compound 0.3 µM",1.37%
same,"viability, T/C","second compound 3.16 µM, first compound 0.949 µM",1.03%
same,"viability, T/C","second compound 3.16 µM, first compound 3 µM",0.18%
same,"viability, T/C","second compound 10 µM, first compound 0.00949 µM",28.5%
same,"viability, T/C","second compound 10 µM, first compound 0.03 µM",24.2%
same,"viability, T/C","second compound 10 µM, first compound 0.0949 µM",3.92%
same,"viability, T/C","second compound 10 µM, first compound 0.3 µM",1%
same,"viability, T/C","second compound 10 µM, first compound 0.949 µM",1.5%
same,"viability, T/C","second compound 10 µM, first compound 3 µM",0.26%
CC1COCCN1c1cc(C2(S(C)(=N)=O)CC2)nc(-c2ccnc3[nH]ccc23)n1 (centres undefined) + CNC(=O)c1ccc(Nc2nc(OC3CCCC3)c3c(-c4ccc5nc(C)oc5c4)c[nH]c3n2)c(OC)c1,IC50,second compound 0.0316 µM,1420 nM
same,IC50,second compound 0.1 µM,846 nM
same,IC50,second compound 0.316 µM,757 nM
same,IC50,second compound 1 µM,600 nM
same,IC50,second compound 3.16 µM,166 nM
same,IC50,second compound 10 µM,43 nM
same,"viability, T/C","second compound 0.0316 µM, first compound 0.0316 µM",102%
same,"viability, T/C","second compound 0.0316 µM, first compound 0.1 µM",110%
same,"viability, T/C","second compound 0.0316 µM, first compound 0.316 µM",86.5%
same,"viability, T/C","second compound 0.0316 µM, first compound 1 µM",61%
same,"viability, T/C","second compound 0.0316 µM, first compound 3.16 µM",27.7%
same,"viability, T/C","second compound 0.0316 µM, first compound 10 µM",14.3%
same,"viability, T/C","second compound 0.1 µM, first compound 0.0316 µM",60%
same,"viability, T/C","second compound 0.1 µM, first compound 0.1 µM",76.3%
same,"viability, T/C","second compound 0.1 µM, first compound 0.316 µM",71.9%
same,"viability, T/C","second compound 0.1 µM, first compound 1 µM",45.1%
same,"viability, T/C","second compound 0.1 µM, first compound 3.16 µM",23.3%
same,"viability, T/C","second compound 0.1 µM, first compound 10 µM",13.1%
same,"viability, T/C","second compound 0.316 µM, first compound 0.0316 µM",68.1%
same,"viability, T/C","second compound 0.316 µM, first compound 0.1 µM",70.3%
same,"viability, T/C","second compound 0.316 µM, first compound 0.316 µM",66.6%
same,"viability, T/C","second compound 0.316 µM, first compound 1 µM",44.2%
same,"viability, T/C","second compound 0.316 µM, first compound 3.16 µM",24.8%
same,"viability, T/C","second compound 0.316 µM, first compound 10 µM",17.8%
same,"viability, T/C","second compound 1 µM, first compound 0.0316 µM",63.4%
same,"viability, T/C","second compound 1 µM, first compound 0.1 µM",55.5%
same,"viability, T/C","second compound 1 µM, first compound 0.316 µM",54.7%
same,"viability, T/C","second compound 1 µM, first compound 1 µM",45.4%
same,"viability, T/C","second compound 1 µM, first compound 3.16 µM",16%
same,"viability, T/C","second compound 1 µM, first compound 10 µM",7.92%
same,"viability, T/C","second compound 3.16 µM, first compound 0.0316 µM",61.8%
same,"viability, T/C","second compound 3.16 µM, first compound 0.1 µM",49.1%
same,"viability, T/C","second compound 3.16 µM, first compound 0.316 µM",42.9%
same,"viability, T/C","second compound 3.16 µM, first compound 1 µM",43.4%
same,"viability, T/C","second compound 3.16 µM, first compound 3.16 µM",14.4%
same,"viability, T/C","second compound 3.16 µM, first compound 10 µM",8.47%
same,"viability, T/C","second compound 10 µM, first compound 0.0316 µM",51.5%
same,"viability, T/C","second compound 10 µM, first compound 0.1 µM",47.3%
same,"viability, T/C","second compound 10 µM, first compound 0.316 µM",30.1%
same,"viability, T/C","second compound 10 µM, first compound 1 µM",30.7%
same,"viability, T/C","second compound 10 µM, first compound 3.16 µM",15.5%
same,"viability, T/C","second compound 10 µM, first compound 10 µM",7.43%
